# Activity calls are given as the source filed them.
# Assays:
# Cytochrome P450 2C9 = Cytochrome P450 2C9 (Homo sapiens, UniProt P11712)
# Cytochrome P450 3A4 = Cytochrome P450 3A4 (Homo sapiens, UniProt P08684);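 also: CYP3A4 tested as one member of a cytochrome P450 panel screen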
# [1] = target: G-protein coupled receptor 55 (Homo sapiens, UniProt Q9Y2T6); test: GPR55 antagonists blocking LPI-driven arrestin recruitment, primary screen, imaging, U2OS, beta-arrestin-GFP, LPI agonist (AID 2013); type: functional;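 also: antagonist potency measured as reduced agonist-driven arrestin aggregation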
# G-protein coupled receptor 55, sequence (Q9Y2T6 whole entry): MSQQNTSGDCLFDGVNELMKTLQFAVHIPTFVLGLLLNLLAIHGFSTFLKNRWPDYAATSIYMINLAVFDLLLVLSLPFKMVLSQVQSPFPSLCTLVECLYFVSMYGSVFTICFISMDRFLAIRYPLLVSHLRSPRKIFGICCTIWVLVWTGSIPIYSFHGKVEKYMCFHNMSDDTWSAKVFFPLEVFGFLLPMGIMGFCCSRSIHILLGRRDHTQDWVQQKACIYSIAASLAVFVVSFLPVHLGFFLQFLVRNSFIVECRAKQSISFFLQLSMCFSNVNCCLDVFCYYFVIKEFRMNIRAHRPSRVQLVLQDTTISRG
# [2] = target: T1, High affinity choline transporter 1 (Homo sapiens, UniProt Q9GZV3); test: CHT inhibitors, dose response, cell-based, 5-point CRC, membrane potential dye (AID 504840); type: functional
# T1 sequence (Q9GZV3 whole entry): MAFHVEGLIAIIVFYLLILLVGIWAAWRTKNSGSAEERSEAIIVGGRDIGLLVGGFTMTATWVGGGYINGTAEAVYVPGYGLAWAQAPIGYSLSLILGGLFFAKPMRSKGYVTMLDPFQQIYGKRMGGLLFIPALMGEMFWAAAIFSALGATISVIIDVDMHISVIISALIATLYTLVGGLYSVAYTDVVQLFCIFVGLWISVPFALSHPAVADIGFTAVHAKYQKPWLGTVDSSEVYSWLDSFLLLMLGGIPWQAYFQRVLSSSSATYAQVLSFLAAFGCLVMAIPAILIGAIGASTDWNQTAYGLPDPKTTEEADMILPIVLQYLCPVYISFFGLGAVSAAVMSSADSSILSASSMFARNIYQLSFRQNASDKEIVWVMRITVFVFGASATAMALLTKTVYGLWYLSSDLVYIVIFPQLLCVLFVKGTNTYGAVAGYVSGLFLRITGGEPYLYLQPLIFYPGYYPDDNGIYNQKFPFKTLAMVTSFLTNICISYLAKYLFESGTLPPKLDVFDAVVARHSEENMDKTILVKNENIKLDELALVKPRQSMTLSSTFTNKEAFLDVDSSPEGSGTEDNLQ
# [3] = target: Voltage-dependent T-type calcium channel subunit alpha-1H (Homo sapiens, UniProt O95180); type: functional;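 also: channel activity triggered by adding a high calcium stimulation buffer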
# Voltage-dependent T-type calcium channel subunit alpha-1H, sequence (O95180 whole entry): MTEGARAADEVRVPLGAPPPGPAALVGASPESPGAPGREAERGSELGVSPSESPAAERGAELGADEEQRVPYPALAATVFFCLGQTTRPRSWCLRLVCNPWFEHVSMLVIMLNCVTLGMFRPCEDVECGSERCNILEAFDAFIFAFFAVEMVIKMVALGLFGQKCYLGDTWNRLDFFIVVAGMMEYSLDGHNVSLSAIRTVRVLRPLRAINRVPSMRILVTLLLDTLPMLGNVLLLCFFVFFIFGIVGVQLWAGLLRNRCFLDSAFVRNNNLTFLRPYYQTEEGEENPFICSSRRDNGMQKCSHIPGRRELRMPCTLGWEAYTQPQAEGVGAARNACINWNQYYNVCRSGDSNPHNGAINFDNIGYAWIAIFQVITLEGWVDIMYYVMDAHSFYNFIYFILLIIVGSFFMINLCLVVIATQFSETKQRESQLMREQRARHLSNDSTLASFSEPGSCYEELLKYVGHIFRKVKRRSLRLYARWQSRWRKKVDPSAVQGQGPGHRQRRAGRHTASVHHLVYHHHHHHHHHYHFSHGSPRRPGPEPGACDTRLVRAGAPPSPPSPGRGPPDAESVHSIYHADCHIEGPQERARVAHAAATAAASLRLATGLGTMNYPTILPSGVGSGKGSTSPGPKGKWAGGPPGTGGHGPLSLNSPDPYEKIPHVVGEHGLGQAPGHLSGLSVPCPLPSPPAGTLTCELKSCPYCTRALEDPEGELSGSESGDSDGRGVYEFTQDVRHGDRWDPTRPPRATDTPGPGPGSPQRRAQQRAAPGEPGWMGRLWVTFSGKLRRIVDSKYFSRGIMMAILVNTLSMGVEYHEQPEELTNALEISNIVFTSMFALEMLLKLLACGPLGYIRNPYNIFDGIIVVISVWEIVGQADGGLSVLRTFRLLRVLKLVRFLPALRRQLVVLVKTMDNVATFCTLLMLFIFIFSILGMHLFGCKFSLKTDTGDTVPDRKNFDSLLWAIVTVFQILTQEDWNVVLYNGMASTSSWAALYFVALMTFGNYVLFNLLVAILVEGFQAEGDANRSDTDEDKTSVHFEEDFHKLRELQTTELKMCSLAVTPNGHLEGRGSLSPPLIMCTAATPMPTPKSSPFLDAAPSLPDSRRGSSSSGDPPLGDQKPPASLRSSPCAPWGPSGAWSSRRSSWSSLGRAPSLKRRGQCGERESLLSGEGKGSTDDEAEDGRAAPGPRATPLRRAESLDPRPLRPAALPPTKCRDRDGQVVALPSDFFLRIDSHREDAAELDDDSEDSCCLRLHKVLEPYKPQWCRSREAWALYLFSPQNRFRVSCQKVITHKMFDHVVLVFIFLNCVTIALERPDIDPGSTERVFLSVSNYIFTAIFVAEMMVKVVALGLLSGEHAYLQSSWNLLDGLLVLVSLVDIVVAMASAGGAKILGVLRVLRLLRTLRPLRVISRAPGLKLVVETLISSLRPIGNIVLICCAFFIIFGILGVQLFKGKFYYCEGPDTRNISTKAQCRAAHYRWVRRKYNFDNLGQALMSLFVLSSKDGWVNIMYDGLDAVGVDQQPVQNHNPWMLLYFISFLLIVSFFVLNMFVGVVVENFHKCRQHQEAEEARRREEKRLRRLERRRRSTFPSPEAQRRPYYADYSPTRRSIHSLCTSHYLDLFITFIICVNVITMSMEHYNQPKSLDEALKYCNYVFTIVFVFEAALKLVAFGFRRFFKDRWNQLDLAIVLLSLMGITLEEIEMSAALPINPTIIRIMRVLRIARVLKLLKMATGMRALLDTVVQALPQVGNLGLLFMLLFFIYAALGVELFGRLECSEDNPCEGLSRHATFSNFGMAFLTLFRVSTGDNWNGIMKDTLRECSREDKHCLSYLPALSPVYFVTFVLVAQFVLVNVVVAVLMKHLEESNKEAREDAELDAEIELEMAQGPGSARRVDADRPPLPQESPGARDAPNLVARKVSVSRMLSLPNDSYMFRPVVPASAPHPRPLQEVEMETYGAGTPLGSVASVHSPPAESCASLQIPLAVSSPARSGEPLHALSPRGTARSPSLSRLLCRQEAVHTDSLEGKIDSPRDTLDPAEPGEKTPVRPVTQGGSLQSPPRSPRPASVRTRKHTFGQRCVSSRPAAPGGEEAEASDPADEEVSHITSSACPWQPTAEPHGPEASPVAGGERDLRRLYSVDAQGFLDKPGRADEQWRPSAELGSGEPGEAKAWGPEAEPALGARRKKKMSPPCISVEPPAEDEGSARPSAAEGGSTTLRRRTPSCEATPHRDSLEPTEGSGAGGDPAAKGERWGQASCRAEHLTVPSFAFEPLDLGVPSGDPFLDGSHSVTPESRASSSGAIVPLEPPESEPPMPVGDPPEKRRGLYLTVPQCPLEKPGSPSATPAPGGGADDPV
# Cytochrome P450 1A2 = target: T2, Cytochrome P450 1A2 (Homo sapiens, UniProt P05177);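 also: PubChem cytochrome P450 panel assay, CYP1A2 panel member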
# T2 sequence (P05177 whole entry): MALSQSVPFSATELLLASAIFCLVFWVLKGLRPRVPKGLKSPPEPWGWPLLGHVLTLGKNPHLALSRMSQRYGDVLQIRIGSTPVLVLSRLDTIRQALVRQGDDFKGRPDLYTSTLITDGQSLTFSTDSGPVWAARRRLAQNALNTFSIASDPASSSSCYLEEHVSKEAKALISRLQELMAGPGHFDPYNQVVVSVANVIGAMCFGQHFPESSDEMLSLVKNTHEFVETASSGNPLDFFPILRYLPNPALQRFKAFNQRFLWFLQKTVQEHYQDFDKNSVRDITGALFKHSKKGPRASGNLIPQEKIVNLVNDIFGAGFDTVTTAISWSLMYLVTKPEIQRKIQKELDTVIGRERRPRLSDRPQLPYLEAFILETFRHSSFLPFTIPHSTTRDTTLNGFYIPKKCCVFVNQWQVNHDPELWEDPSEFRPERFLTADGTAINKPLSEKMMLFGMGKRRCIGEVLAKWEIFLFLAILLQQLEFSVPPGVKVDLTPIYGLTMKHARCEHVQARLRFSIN
# [4] = inhibitors of intracellular T. cruzi replication, confirmation, NIH3T3 host cells, beta-gal luminescence (AID 2044); type: functional, cell-based;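 also: intracellular parasites grown in NIH/3T3 mouse fibroblasts as host cells; luminescent beta-galactosidase reporter signal from transgenic T. cruzi replicating inside host cells; inhibitors lower the luminescence signal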
# Protein RecA = target: T3, Protein RecA (Mycobacterium tuberculosis, UniProt P9WHJ3); test: Fluorescence Cell-Free Homogeneous Dose Retest to Identify Inhibitors of RecA-Intein Splicing Activity. [Related pubchem assays (depositor defined):AID2097, AID2223, AID489010, AID492950]; type: functional
# T3 sequence (P9WHJ3 whole entry): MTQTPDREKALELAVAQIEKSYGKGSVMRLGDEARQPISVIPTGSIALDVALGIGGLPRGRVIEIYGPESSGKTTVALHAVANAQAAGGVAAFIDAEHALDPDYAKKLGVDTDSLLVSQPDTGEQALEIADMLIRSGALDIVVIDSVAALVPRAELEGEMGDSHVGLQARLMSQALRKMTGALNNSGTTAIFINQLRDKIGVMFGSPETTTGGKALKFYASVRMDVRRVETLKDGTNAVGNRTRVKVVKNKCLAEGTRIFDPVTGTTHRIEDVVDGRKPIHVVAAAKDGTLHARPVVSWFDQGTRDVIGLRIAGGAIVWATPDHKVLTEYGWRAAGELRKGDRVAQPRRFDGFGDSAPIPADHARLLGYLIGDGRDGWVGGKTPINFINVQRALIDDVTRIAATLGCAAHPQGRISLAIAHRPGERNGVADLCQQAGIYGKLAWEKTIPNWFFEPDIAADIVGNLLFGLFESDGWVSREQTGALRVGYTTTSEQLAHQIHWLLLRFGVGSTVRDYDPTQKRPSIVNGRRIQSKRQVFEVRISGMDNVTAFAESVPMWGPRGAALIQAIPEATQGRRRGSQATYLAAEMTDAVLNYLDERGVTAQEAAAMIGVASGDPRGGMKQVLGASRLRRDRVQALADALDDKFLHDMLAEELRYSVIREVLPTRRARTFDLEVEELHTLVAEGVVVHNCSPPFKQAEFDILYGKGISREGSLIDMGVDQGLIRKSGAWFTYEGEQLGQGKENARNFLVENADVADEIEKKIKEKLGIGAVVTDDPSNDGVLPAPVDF
# [5] = target: T4, Replicative DNA helicase DnaB (Mycobacterium tuberculosis, UniProt P9WMR3); test: DnaB intein splicing inhibitors, dose response, biochemical, cell-free fluorescence (AID 449749); type: functional
# T4 sequence (P9WMR3 whole entry): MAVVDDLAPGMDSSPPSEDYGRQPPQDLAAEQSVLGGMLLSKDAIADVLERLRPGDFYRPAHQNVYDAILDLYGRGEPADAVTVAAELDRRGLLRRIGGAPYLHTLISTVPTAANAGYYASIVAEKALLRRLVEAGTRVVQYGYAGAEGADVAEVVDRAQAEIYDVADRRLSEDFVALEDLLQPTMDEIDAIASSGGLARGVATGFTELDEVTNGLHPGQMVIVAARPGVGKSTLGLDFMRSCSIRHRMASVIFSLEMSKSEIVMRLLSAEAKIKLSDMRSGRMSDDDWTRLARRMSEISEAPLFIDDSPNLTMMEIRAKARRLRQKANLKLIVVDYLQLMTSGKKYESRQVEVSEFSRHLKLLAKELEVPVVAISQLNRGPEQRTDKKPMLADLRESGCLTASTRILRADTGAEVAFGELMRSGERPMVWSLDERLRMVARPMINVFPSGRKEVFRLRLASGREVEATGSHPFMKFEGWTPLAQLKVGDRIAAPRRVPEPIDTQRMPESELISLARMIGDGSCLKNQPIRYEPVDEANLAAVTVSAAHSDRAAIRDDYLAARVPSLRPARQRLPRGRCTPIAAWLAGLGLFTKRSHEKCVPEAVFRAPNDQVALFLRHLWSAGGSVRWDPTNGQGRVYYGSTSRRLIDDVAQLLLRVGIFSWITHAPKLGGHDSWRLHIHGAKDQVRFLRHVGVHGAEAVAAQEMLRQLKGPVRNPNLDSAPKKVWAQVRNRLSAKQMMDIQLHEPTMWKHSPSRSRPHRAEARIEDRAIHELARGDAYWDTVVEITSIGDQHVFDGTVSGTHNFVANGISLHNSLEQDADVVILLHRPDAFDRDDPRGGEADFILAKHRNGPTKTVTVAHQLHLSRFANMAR
# [6] = cytotoxicity toward NIH3T3 fibroblasts, dose response, counter-screen, cell-based, ATP luminescence, mouse fibroblasts (AID 2010); type: functional;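 also: cells exposed to compound for about 90 hours before reading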
# [7] = C. albicans growth with fluconazole, confirmation, fluorescence, retest (AID 2467); type: functional, cell-based
# [8] = target: ATP-dependent molecular chaperone HSP82 (Candida albicans (strain WO-1) (Yeast), UniProt C4YTQ8); test: loss of DOC-induced GRE-beta-galactosidase reporter signal, dose response, Hsp90 inhibitor project, S. cerevisiae, luminescence (AID 2400); type: functional, cell-based;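 also: beta-galactosidase luminescence from glucocorticoid response element reporter as proxy for Hsp90 function; inhibitor potency where signal loss means Hsp90 inhibition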
# ATP-dependent molecular chaperone HSP82, sequence (C4YTQ8 whole entry): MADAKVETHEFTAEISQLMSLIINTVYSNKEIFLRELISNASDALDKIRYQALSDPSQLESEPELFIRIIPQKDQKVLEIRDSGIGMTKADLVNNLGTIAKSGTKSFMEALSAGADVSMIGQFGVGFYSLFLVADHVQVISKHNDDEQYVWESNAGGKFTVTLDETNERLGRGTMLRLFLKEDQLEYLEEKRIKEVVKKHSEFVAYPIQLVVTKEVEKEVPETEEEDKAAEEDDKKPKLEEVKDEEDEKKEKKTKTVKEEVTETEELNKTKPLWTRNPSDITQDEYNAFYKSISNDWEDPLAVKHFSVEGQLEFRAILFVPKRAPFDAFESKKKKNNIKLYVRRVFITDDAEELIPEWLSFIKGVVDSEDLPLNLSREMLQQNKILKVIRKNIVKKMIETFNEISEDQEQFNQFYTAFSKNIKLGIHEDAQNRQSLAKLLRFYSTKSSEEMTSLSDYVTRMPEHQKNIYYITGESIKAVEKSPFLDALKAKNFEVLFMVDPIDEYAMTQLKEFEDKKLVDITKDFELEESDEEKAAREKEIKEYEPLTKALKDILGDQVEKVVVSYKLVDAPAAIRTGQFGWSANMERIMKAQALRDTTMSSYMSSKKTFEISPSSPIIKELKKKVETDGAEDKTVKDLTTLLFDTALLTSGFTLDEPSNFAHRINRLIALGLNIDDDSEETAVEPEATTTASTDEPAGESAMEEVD
# [9] = NIH-3T3 fibroblast cytotoxicity, dose response, cytotoxicity control, cell-based, fluorescence, Alamar Blue, secondary assay (AID 2327); type: functional;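 also: NIH-3T3 mouse fibroblasts cultured with fluconazole at 8 µg/mL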
# [10] = system: Streptococcus sp. 'group A'; test: growth inhibition of control SK(-) GAS strain, dose response, counter-screen for streptokinase expression inhibitor project, luminescence, kanamycin, BacTiterGlo, confirmation (AID 1900); type: functional, organism-based
# [11] = target: T5, Serine/threonine-protein phosphatase (Candida dubliniensis (strain CD36 / CBS 7987 / NCPF 3949 / NRRLY-17841) (Yeast), UniProt B9W6M3); test: calcineurin pathway inhibitors in yeast reporter, dose response, S. cerevisiae, CDRE-lacZ, luminescence, secondary (AID 2388); type: functional, cell-based;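 also: yeast reporter cells carrying a calcineurin-responsive lacZ construct stimulated with calcium chloride; luminescent beta-galactosidase reporter signal in whole cells rather than isolated phosphatase activity; potency for inhibition where a drop in reporter signal means calcineurin blockade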
# T5 sequence (B9W6M3 whole entry): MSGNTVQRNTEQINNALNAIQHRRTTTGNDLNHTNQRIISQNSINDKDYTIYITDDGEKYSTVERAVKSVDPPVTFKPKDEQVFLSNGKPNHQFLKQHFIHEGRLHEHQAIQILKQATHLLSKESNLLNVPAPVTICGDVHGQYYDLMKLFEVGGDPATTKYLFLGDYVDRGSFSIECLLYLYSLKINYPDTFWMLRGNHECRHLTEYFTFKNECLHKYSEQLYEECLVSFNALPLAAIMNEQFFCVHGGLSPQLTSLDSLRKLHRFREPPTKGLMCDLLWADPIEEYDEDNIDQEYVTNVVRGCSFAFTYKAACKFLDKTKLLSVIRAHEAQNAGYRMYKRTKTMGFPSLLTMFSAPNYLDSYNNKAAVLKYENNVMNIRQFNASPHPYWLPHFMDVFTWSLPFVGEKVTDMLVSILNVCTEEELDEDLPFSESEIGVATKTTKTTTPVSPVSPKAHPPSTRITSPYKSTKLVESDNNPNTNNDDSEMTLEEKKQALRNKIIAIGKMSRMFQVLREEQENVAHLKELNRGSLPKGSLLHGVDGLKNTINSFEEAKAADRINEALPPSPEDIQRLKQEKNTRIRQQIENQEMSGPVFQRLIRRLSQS
# Streptococcus = test: Group A Streptococcus viability loss, dose response, counter-screen for streptokinase expression inhibitor project, luminescence, BacTiterGlo (AID 1915); type: functional, organism-based;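 also: potency for reduction of bacterial viability or growth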
# HeLa = test: HeLa cell cytotoxicity, dose response, cytotoxicity control for MITF activator project, CellTiter-Glo luminescence, cherry-pick samples (AID 540259); type: functional, cell-based; conditions: Homo sapiens
# Cytochrome P450 2C19 = Cytochrome P450 2C19 (Homo sapiens, UniProt P33261); test: Cytochrome panel assay with activity outcomes. Panel member name: p450-cyp2c19 Compounds with AC50 equal or less than 10 uM are considered active; type: functional; conditions: read-out: AC50
# Cytochrome P450 2C19, sequence (P33261 whole entry): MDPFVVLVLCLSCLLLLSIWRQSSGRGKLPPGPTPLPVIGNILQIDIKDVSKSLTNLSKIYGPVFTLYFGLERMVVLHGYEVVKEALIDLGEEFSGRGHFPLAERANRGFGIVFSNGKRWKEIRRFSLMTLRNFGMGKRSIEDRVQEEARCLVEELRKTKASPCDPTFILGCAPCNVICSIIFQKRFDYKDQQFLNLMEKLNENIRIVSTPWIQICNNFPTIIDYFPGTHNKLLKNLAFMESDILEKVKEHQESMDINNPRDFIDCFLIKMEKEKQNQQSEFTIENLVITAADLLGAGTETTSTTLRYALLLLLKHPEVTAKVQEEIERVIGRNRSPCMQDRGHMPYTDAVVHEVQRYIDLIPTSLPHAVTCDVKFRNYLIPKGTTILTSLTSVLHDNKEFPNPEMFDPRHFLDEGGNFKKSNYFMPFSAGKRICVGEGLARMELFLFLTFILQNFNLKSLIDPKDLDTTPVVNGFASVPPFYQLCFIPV
# Genome polyprotein = Genome polyprotein (dengue virus type 2, UniProt P29990); test: Dengue-2 NS5 methyltransferase inhibitors, primary screen, biochemical, confirmation dose response (AID 588689); type: functional
# [12] = A cytotoxicity screen of small molecule inhibitors of the PhoP region in Salmonella typhi identified in the primary screen. [Related pubchem assays: 1850, 1864, 1985 ]; type: functional
# [13] = Luminescence Cell-Based Dose Retest to Confirm Inhibitors of Cancer Stem Cells. [Related pubchem assays (depositor defined):AID2717, AID2721]; type: functional; conditions: Homo sapiens
# Cytochrome P450 2C9, sequence (P11712 whole entry): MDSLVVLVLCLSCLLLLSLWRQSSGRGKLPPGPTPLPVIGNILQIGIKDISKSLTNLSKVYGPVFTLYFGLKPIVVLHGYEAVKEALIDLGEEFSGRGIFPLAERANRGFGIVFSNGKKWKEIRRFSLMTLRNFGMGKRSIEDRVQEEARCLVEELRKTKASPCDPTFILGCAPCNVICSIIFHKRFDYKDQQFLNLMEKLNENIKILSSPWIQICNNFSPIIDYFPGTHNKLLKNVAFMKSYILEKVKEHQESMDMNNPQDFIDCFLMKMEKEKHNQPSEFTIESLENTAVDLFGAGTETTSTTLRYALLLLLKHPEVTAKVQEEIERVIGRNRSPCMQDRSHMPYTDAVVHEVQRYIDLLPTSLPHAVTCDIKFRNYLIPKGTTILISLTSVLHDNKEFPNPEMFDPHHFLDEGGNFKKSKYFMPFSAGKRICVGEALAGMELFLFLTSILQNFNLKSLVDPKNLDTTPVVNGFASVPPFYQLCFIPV
# Cytochrome P450 3A4, sequence (P08684 whole entry): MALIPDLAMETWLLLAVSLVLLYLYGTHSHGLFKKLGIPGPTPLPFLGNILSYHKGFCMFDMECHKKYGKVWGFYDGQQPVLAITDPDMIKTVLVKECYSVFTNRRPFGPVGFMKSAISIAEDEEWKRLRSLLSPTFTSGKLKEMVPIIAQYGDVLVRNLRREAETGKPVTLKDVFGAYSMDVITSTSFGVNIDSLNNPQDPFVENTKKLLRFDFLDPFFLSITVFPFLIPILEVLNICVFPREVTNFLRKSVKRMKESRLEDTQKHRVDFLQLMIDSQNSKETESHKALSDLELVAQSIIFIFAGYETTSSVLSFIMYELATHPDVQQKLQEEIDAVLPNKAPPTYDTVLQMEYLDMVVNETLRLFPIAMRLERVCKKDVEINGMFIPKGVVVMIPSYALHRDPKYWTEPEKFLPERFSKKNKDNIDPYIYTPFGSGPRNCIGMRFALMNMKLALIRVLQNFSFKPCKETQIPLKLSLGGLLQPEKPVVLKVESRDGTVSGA
compound,measurement,setting,value
CN(C)c1ncc2nc(-c3cc(F)cc(F)c3)c(=O)n(Cc3ccc(F)cc3)c2n1,AC50,Cytochrome P450 2C9,inconclusive
same,AC50,Cytochrome P450 3A4,31.6 µM (inconclusive)
O=C(c1ccccc1)N1N=C(c2cccs2)CC1c1ccccc1O (centres undefined),IC50,[1],2.72 µM (active)
O=C(NCCCN1CCOCC1)c1ccc2c(=O)n(-c3ccc(F)c(Cl)c3)c(=S)[nH]c2c1,IC50,[2],11.5 µM (active)
COc1ccc(OC)c(NC(=O)CSCc2cnn(-c3ccccc3)c2-n2cccc2)c1,EC50,[3],4.18 µM (active)
same,AC50,Cytochrome P450 2C9,inconclusive
same,AC50,Cytochrome P450 1A2,25.1 µM (inconclusive)
CC(C)(C)n1nnnc1C(c1cccs1)N(Cc1cccnc1)Cc1ccccc1Cl (centres undefined),EC50,[4],684 nM (active)
same,EC50,Protein RecA,59 µM (active)
same,IC50,[1],3.57 µM (active)
same,AC50,[5],> 120 µM (inactive)
same,EC50,[6],15.1 µM (active)
Cc1ccc(-n2cc(CN3CCN(Cc4nccn4C)CC3)c(-c3ccc(F)cc3)n2)cc1,IC50,[2],10.1 µM (active)
CCCC(=O)Nc1cccc(NC(=O)c2ccc([N+](=O)[O-])cc2Cl)c1,IC50,[2],15.1 µM (active)
CCOc1ccc(N=Nc2ccc(O)c3ncccc23)cc1,EC50,[4],650 nM (active)
same,EC50,[7],1.11 µM (active)
same,EC50,[8],> 150 µM (inactive)
same,EC50,[9],> 150 µM (inconclusive)
same,EC50,[10],190 nM (active)
same,EC50,[11],> 180 µM (inactive)
same,EC50,Streptococcus,1.45 µM (active)
same,EC50,[6],8.06 µM (active)
Cc1cc(O)c2cc(Cl)ccc2n1,AC50,Cytochrome P450 2C9,inconclusive
COc1ccc2c(c1)CCc1c(C(=O)NCC(C)C)noc1-2,AC50,HeLa,55.1 µM (active)
Cc1ccc(Nc2cc(C)nc(-c3ccccc3)n2)cc1,AC50,HeLa,36.7 µM (active)
Cn1c(=O)oc2cc(S(=O)(=O)NCCC(=O)N3CC=C(c4ccccc4)CC3)ccc21,AC50,Cytochrome P450 2C9,inconclusive
same,AC50,Cytochrome P450 1A2,31.6 µM (inconclusive)
CCOCCCN1C(=O)CN(C2CCCCCC2)C(=O)C1c1ccc(OC)cc1 (centres undefined),AC50,Cytochrome P450 2C9,inconclusive
same,AC50,Cytochrome P450 2C19,25.1 µM (inconclusive)
CSc1nnc(-c2sccc2OCc2ccccc2)n1C,IC50,[1],2.71 µM (active)
O=C(NC1CC1)c1sc2cc(Cl)ccc2c1Cl,AC50,HeLa,69.3 µM (active)
CNC(=O)c1ccc(-c2cc3onc(-c4ccccc4)c3c(=O)n2C)cc1,AC50,HeLa,44.9 µM (active)
CC1=NC(C)(C)Cc2cc(C)c(C)cc21,IC50,[2],13.2 µM (active)
Cc1[nH]n(-c2ccccc2)c(=O)c1C(c1cccc([N+](=O)[O-])c1O)c1c(C)[nH]n(-c2ccccc2)c1=O,IC50,Genome polyprotein,31.6 µM (active)
same,EC50,Protein RecA,0.931 µM (active)
same,EC50,[12],> 50 µM (active)
same,AC50,[5],1.15 µM (active)
N#Cc1c(/N=C/N2CCCC2)oc(-c2ccccc2)c1-c1ccccc1,IC50,[1],0.558 µM (active)
same,AC50,[13],1.67 µM (active)

# Reference: ChEMBL document CHEMBL1201862, “PubChem BioAssay data set” (2004)
